Assay results: patent US9708314B2, “Heterocyclic amide compound” (NISSAN CHEMICAL INDUSTRIES, LTD., priority 2013, dated 2017)

Key:
Format in all cases: in vivo
[1] = test system: Echinochloa crus-galli var. crus-galli; experiment: Test Example 3: herbicidal effect by application to foliage (Wagner pot, water depth 0.1-0.5 cm); details: Nineteenth Table; for H (Echinochloa crus-galli var. crus-galli) herbicidal ratio grade: application herbicide amount 400 g/ha
In short: (§1)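 Post-emergence foliar application at a stated g/ha rate to plants grown 14 days from seed in alluvial soil, greenhouse 25–30 °C. Visual score after 3 weeks: 0 (≤5% effect) through 5 (≥90%).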

Leptochloa chinensis = experiment: as above; details: Nineteenth Table; for D (Leptochloa chinensis) herbicidal ratio grade: application herbicide amount 400 g/ha
In short: as §1

[2] = test system: directly sowed Oryza sativa; experiment: Test Example 3: effect on crop by application to foliage (Wagner pot, water depth 0.1-0.5 cm); details: Nineteenth Table; for b (directly sowed Oryza sativa) effect on crop grade: application herbicide amount 400 g/ha
In short: as §1

Abutilon theophrasti = experiment: Test Example 4: herbicidal effect by application to foliage (diluvial soil, plastic box); details: for M (Abutilon theophrasti) herbicidal effect: application to foliage, application herbicide amount 320 g/ha
In short: (§2)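 Read-out is a 0–5 visual grade of herbicidal ratio (5: ≥90%, almost withered; 0: ≤5%) taken three weeks after treatment. Compound was applied as a diluted emulsion to stem and leaf parts of 14-day greenhouse-grown plants (25° C. to 30° C.) at rates expressed as g/ha.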

Alopecurus myosuroides = experiment: as above; details: for J (Alopecurus myosuroides) herbicidal effect: application to foliage, application herbicide amount 320 g/ha
In short: as §2

Apera spica-venti. = experiment: as above; details: for L (Apera spica-venti.) herbicidal effect: application to foliage, application herbicide amount 320 g/ha
In short: as §2

Avena fatua = experiment: as above; details: for I (Avena fatua) herbicidal effect: application to foliage, application herbicide amount 320 g/ha
In short: as §2

Chenopodium album = experiment: as above; details: for O (Chenopodium album) herbicidal effect: application to foliage, application herbicide amount 320 g/ha
In short: as §2

Digitaria ciliaris = experiment: as above; details: for F (Digitaria ciliaris) herbicidal effect: application to foliage, application herbicide amount 320 g/ha
In short: as §2

[3] = test system: Echinochloa crus-galli var. crus-galli; experiment: as above; details: for H (Echinochloa crus-galli var. crus-galli) herbicidal effect: application to foliage, application herbicide amount 320 g/ha
In short: as §2

Galium spurium = experiment: as above; details: application to foliage, application herbicide amount 320 g/ha
In short: as §2

Lolium multiflorum Lam. = experiment: as above; details: for K (Lolium multiflorum Lam.) herbicidal effect: application to foliage, application herbicide amount 320 g/ha
In short: as §2

Setaria viridis = experiment: as above; details: for G (Setaria viridis) herbicidal effect: application to foliage, application herbicide amount 320 g/ha
In short: as §2

Veronica persica = experiment: as above; details: application to foliage, application herbicide amount 320 g/ha
In short: as §2

Cyperus difformis = experiment: Test Example 3: herbicidal effect by application to foliage (Wagner pot, water depth 0.1-0.5 cm); details: Nineteenth Table; application to foliage; application herbicide amount 320 g/ha
In short: as §1

[4] = application to foliage, application herbicide amount 320 g/ha
[5] = Application herbicide amount 320 g/ha

| Compound | H (Echinochloa crus-galli var. crus-galli) herbicidal ratio grade [1] | D (Leptochloa chinensis) herbicidal ratio grade (Leptochloa chinensis) | b (directly sowed Oryza sativa) effect on crop grade [2] | M (Abutilon theophrasti) herbicidal effect (Abutilon theophrasti) | J (Alopecurus myosuroides) herbicidal effect (Alopecurus myosuroides) | L (Apera spica-venti.) herbicidal effect (Apera spica-venti.) | I (Avena fatua) herbicidal effect (Avena fatua) | O (Chenopodium album) herbicidal effect (Chenopodium album) | F (Digitaria ciliaris) herbicidal effect (Digitaria ciliaris) | H (Echinochloa crus-galli var. crus-galli) herbicidal effect [3] | Q (Galium spurium) herbicidal effect (Galium spurium) | K (Lolium multiflorum Lam.) herbicidal effect (Lolium multiflorum Lam.) | G (Setaria viridis) herbicidal effect (Setaria viridis) | further results |
| --- | --- | --- | --- | --- | --- | --- | --- | --- | --- | --- | --- | --- | --- | --- |
| Cc1nnc(NC(=O)c2ccc(C(F)(F)F)n3c(C)nnc23)o1 [1-002] | 4 (Herbicidal ratio of 70% or more and less than 90%) | 4 (Herbicidal ratio of 70% or more and less than 90%) | 0 (Herbicidal ratio of 5% or less (almost no effect)) | 3 (Herbicidal ratio of 40% or more and less than 70%) | 1 (Herbicidal ratio of 5% or more and less than 20%) | 1 (Herbicidal ratio of 5% or more and less than 20%) | 3 (Herbicidal ratio of 40% or more and less than 70%) | 5 (Herbicidal ratio of 90% or more (almost completely withered)) | 4 (Herbicidal ratio of 70% or more and less than 90%) | 5 (Herbicidal ratio of 90% or more (almost completely withered)) | 4 (Herbicidal ratio of 70% or more and less than 90%) | 2 (Herbicidal ratio of 20% or more and less than 40%) | 2 (Herbicidal ratio of 20% or more and less than 40%) |  |
| Cc1nnc(NC(=O)c2ccc(C(F)(F)F)n3c(-c4ccccc4)nnc23)o1 [1-012] | 3 (Herbicidal ratio of 40% or more and less than 70%) | 5 (Herbicidal ratio of 90% or more (almost completely withered)) | 0 (Herbicidal ratio of 5% or less (almost no effect)) | 3 (Herbicidal ratio of 40% or more and less than 70%) | 0 (Herbicidal ratio of 5% or less (almost no effect)) | 1 (Herbicidal ratio of 5% or more and less than 20%) | 0 (Herbicidal ratio of 5% or less (almost no effect)) | 5 (Herbicidal ratio of 90% or more (almost completely withered)) | 3 (Herbicidal ratio of 40% or more and less than 70%) | 4 (Herbicidal ratio of 70% or more and less than 90%) | 2 (Herbicidal ratio of 20% or more and less than 40%) | 1 (Herbicidal ratio of 5% or more and less than 20%) | 4 (Herbicidal ratio of 70% or more and less than 90%) | R (Veronica persica) herbicidal effect (Veronica persica): 4 (Herbicidal ratio of 70% or more and less than 90%) |
| CSC(C)c1nnc2c(C(=O)Nc3nnc(C)o3)ccc(C(F)(F)F)n12 (stereo not shown) [1-078] |  |  |  |  |  |  |  |  |  |  |  |  |  | E (herbicidal effect grade) (Cyperus difformis): 5 (Herbicidal ratio of 90% or more (almost completely withered)); H (herbicidal effect grade) [1, 4]: 5 (Herbicidal ratio of 90% or more (almost completely withered)); D (herbicidal effect grade) (Leptochloa chinensis; [4]): 5 (Herbicidal ratio of 90% or more (almost completely withered)); b (effect on crop grade) [2, 4]: 5 (Herbicidal ratio of 90% or more (almost completely withered)); M (Abutilon theophrasti; [5]): 5 (Herbicidal ratio of 90% or more (almost completely withered)); J (Alopecurus myosuroides; [5]): 3 (Herbicidal ratio of 40% or more and less than 70%); L (Apera spica-venti.; [5]): 4 (Herbicidal ratio of 70% or more and less than 90%); I (Avena fatua; [5]): 4 (Herbicidal ratio of 70% or more and less than 90%); O (Chenopodium album; [5]): 5 (Herbicidal ratio of 90% or more (almost completely withered)); F (Digitaria ciliaris; [5]): 5 (Herbicidal ratio of 90% or more (almost completely withered)); H [3, 5]: 5 (Herbicidal ratio of 90% or more (almost completely withered)); K (Lolium multiflorum Lam.; [5]): 3 (Herbicidal ratio of 40% or more and less than 70%); G (Setaria viridis; [5]): 5 (Herbicidal ratio of 90% or more (almost completely withered)) |
